How the values were obtained:
[1] = tested on: T cells in PBMCs from healthy HIV-negative donors; assay: Immune activation and checkpoint markers in PBMCs by flow cytometry; type: cell-based, human
Description: PBMCs from healthy HIV-negative donors (n=5) were treated with 100 ng/ml PMA 2 plus 2 μg/ml ionomycin, 30 mM Na-Cro overnight, and analyzed by flow cytometry for the expression of CD4, CD8, HLA-DR, CD69, or PD-1 in CD3+ T cells. Percentage of cells expressing immune activation markers was presented for CD3+ cells (see panel A), CD3+CD4+ T cells (see panel B), and CD3+ CD8+ T cells (see panel C). ***, p<0.001, compared with control after 24 or 72 hour treatment.
It was examined whether induction of histone crotonylation in T cells impacted the level of immune activation in these cells. Peripheral blood mononuclear cells from HIV-negative healthy donors (n=5) were treated with PMA/Ionomycin or Na-Cro for 24 hours or 72 hours. Changes in the immune cell status were examined by measuring the levels of HLA-DR, CD69, and PD-1 in the T cell subsets by flow cytometric analysis (see FIG. 9). […] Instead, it is associated with the suppression of immune activation, which may have a beneficial effect on patient immune function.

[2] = tested on: histone tails and transcription factors in J-Lat A1 cells; assay: Western blot of global histone modifications and transcription factors; type: cell-based
Text: (§1) FIG. 2 is a series of images and graphs showing that histone crotonylation by sodium crotonate addition re-programs histone tails at the HIV LTR. Panel A illustrates that Na-Cro addition increased global expression of H3K4Cro, H3K4Ac, and H3K18Ac while decreasing H3K27Me3. Panel B illustrates expression of transcription factors after Na-Cro addition in J-Lat Al cells. Panels C-E illustrate that Na-Cro addition re-programmed histone tails at the HIV LTR. Chromatin immunoprecipitation (ChIP) assay was performed by using anti-H3K4Cr, anti-H3K4Ac, and anti-H3K27Me3 antibodies after J-Lat Al cells were treated with 30 mM Na-Cro for 4 hours. PCR primers were specific for the HIV LTR region.
Western Blot Analysis: Western blot analysis was performed by using one million cells treated with LRAs for 6 or 18 hours. Whole cell lysates were prepared using RIPA buffer. Nuclear Extracts were prepared using EPIQUIK™ Total Histone Extraction Kit ([…]™, Farmingdale N.Y.). Antibodies (CELL SIGNALING TECHNOLOGY®, Boston, Mass.) for Cyclin T1, CDK9, CDK9-P, NF-kB, GAPDH, and total H3 were used to detect protein expression under different drug conditions. Antibodies for H3K4Cro (PTM BIOLABS™, Chicago, Ill.), H3K27Me3 (CELL SIGNALING TECHNOLOGY®), H3K4Ac (CELL SIGNALING TECHNOLOGY®), and H3K18Ac (CELL SIGNALING TECHNOLOGY®) were used to measure histone modifications.

[3] = tested on: HIV LTR in J-Lat A1 cells; assay: Chromatin immunoprecipitation (ChIP) at the HIV LTR; type: cell-based; details: J-Lat A1 cells, 30 mM Na-Cro for 4 hours
Text: as §1
FIG. 7 is a series of graphs showing that induction of de-crotonylation of histone tail at HIV LTR is independent of SIRTs. Panel A illustrates that J-Lat Al cells were pre-treated with either 50 μM RSV or 1 mM NAM, followed by 30 mM Na-Cro addition to reactivate latent HIV expression. Untreated controls were compared with positive controls involving individual treatment of Na-Cro, RSV, or NAM. *, p<0.05; **, p<0.01 compared with control treatment. #, p<0.05 compared with Na-Cro treatment. Panel B illustrates that gene expression of sirt1 or sirt3 was measured by RT-qPCR in J-Lat Al cells treated with either 25 μM RSV, 50 μM RSV, or 1 mM NAM. *, p<0.05 and **, p<0.01 compared with control treatment. Panels C and D illustrate that histone crotonylation induces binding of SIRT3 and SIRT1 at the HIV LTR. J-Lat Al cells were treated with 30 mM Na-Cro for 4 hours and analyzed by ChIP assays using anti-SIRT1 or anti-SIRT3 antibodies. *, p<0.05 compared with control treatment.
Chromatin Immunoprecipitation (ChIP): J-Lat Al cells (2.5 to 5 million) were utilized in ChIP assays with anti-H3K18Ac, anti-H3K4Cr, anti-H3K27Me3, anti-H3K4Ac, anti-SIRT3 (CELL SIGNALING TECHNOLOGY®), and anti-SIRT1 (CELL SIGNALING TECHNOLOGY®) antibodies. ChIP assays were performed using […]® Kit from CELL SIGNALING TECHNOLOGY® as per the manufacturer's recommendations. Samples were cross-linked using formaldehyde and 150-1000 bp fragments were made using Micrococcal Nuclease digestion and 7 cycles of 30 seconds on/30 seconds off sonication. Antibodies were used to probe respective proteins. Purification of DNA was performed using the […]® Kit Protocol. Purified ChIP DNA was used in SYBR® Green qPCR using ChIP primers specific for HIV LTR.

[4] = healthy donors n=5, 30 mM Na-Cro

C/C=C/C(=O)[O-].[Na+] [Na-Cro, sodium crotonate]
HLA-DR expression in CD4+ or CD8+ T cells [1, 4]: inhibited HLA-DR expression at 24 and 72 hours
PD-1 expression in CD3+ T cells [1, 4]: did not change
PD-1 expression in CD4+ or CD8+ T cells [1, 4]: did not modulate PD-1 expression
HLA-DR expression in CD3+ T cells ([1]; healthy donors n=5, 30 mM Na-Cro or PMA plus ionomycin, 24 or 72 hours): suppressed HLA-DR expression at 72 hours post-treatment
expression of transcription factors involved in HIV transcription ([2]; J-Lat A1 cells): did not alter transcription factors that are involved in HIV transcription except a minor induction of CDK9 protein
global H3K4 acetylation ([2]; Na-Cro-treated T cells): increased
global H3K4 crotonylation ([2]; Na-Cro-treated T cells): increased
global H3K18 acetylation ([2]; Na-Cro-treated T cells): increased
global H3K27 trimethylation ([2]; Na-Cro-treated T cells): markedly decreased
acetylation at H3K4 at the HIV LTR [3]: increased
binding of SIRT1 at the HIV LTR [3]: efficiently bound to the HIV LTR at higher levels than controls
binding of SIRT3 at the HIV LTR [3]: efficiently bound to the HIV LTR at higher levels than controls
crotonylation at H3K4 at the HIV LTR [3]: increased
histone tri-methylation at H3K27 at the HIV LTR [3]: decreased

Source: US20230087766A1, “METHODS OF REACTIVATING LATENT HUMAN IMMUNODEFICIENCY VIRUS AND RELATED COMPOSITIONS” (priority 2017, published 2023)
